Experimental data as given in patent US20100173331A1, “NOVEL NOTCH-ORIGIN POLYPEPTIDES AND BIOMARKERS AND REAGENTS USING THE SAME” (priority 2002, published 2010).

Target: T1, presenilin (Homo sapiens, UniProt P49768)
T1 construct: endogenous in cells; probably K293
Experiment: Pulse-chase of cells stably expressing F-NEXT with or without γ-secretase inhibitor; immunoprecipitation/SDS-PAGE of media (Nβ release) and lysates (NICD)
Assay type: cell-based
Settings: 1 μM inhibitor, 1 hour pulse, 2-hour chase
Method: Human embryonic kidney 293 (K293), N2a and COS cells were cultured in DMEM supplemented with 10% fetal bovine serum, 1% penicillin/streptomycin, and 200 μg/ml zeocin (to select for PS1 expression), and/or 100 μg/ml hygromycin (to select for NΔE and F-NEXT expression). The K293 can stably express wild-type PS1, PS1 L286V, or PS1 D385N (Okochi et al, 2000, Kulic et al, 2000, Wolfe et al., 1999). The transfection with NΔE or F-NEXT was performed by means of a product named Lipofectamine 2000 (Invitrogen).
To determine NΔE N-terminal fragment (NTF: Nβ) release from NΔE expressing cells, K293 cells stably transfected with NΔE or NICD were grown to confluence in a 10 cm dish. The cells were then metabolically pulse-labeled for 2 hours with 300 μCi [^3H] amino acids (tritiated amino acid mixture, Amersham) in Earle's Balanced Salt Solution supplemented with MEM Vitamine Solution (Gibco) and several cold amino acids, followed by a 6-hour chase by 10% FCS/DMEM. To examine Nβ release, cells expressing F-NEXT were, at first, starved of methinine for 40 min with methionine-free media and then pulse-labeled for 1 hour with 400 μCi [^35S] amino acid mixture (Redivue Promix, Amersham) in methionine-free DMEM, followed by chasing for various time periods with the chase media containing 10% FCS/DMEM supplemented with excess cold methionine. […]

NICD band in cell lysates (S3 cleavage), immunoprecipitated with 9E10 (FIG. 5B lower panel): hardly visible | Nβ release to culture media (S4 cleavage), immunoprecipitated with M2-agarose (FIG. 5B upper panel): decreased drastically
SMILES: CC(C)C[C@H](NC(=O)[C@H](Cc1ccccc1)C[C@@H](O)[C@H](Cc1ccccc1)NC(=O)OC(C)(C)C)C(=O)N[C@@H](Cc1ccccc1)C(N)=O [L685,458, [(2R,4R,5S)-2-Benzyl-5-(Boc-amino)-4-hydroxy-6-phenyl-hexanoyl]-Leu-Phe-NH2]
